Laboratory results taken from patent publication US20140023611A1 (priority 2010, published 2014).

Experiments:
rat NaP2b (SLC34A2) = target: T1, rat NaP2b (SLC34A2) (Rattus norvegicus, UniProt Q9JJ09); assay: Inhibition of NaP2b-mediated Pi (33P) uptake in transfected HEK293 cells, rat NaP2b; format: cell-based; conditions: 33P Pi uptake, 0.1 mM phosphate, value given as pIC50 range
T1 construct: host or cells: HEK293
T1 sequence (Q9JJ09 1-695): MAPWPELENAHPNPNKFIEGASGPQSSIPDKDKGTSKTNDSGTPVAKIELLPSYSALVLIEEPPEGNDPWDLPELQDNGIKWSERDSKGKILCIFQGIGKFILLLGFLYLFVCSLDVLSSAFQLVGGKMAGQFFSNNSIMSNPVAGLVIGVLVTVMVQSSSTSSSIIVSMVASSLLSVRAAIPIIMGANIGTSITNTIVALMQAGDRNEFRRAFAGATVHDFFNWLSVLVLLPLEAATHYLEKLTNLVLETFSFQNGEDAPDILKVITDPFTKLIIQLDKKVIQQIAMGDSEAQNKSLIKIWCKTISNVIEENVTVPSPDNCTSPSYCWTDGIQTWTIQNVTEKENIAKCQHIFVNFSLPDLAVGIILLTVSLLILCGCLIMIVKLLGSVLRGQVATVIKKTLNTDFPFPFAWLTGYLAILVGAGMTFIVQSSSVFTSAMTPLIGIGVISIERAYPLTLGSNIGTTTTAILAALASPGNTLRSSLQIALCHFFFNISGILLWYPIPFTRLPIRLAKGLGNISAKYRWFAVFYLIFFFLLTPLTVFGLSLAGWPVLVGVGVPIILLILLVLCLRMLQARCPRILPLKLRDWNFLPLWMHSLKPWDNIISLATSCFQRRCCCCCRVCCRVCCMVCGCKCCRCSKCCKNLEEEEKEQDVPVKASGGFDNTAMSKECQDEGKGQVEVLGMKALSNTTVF
Outline: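 The cells transiently expressed NaP2b after Lipofectamine transfection. Each compound was run in duplicate over twelve concentrations, 0.1 nM–30 uM.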

human NaP2b (SLC34A2) = target: T2, human NaP2b (SLC34A2) (Homo sapiens, UniProt O95436); assay: Inhibition of NaP2b-mediated Pi (33P) uptake in transfected HEK293 cells, human NaP2b; format: cell-based; conditions: read-out: pIC50 range for human NaP2b (converted)
T2 construct: host or cells: HEK293
T2 sequence (O95436 1-690): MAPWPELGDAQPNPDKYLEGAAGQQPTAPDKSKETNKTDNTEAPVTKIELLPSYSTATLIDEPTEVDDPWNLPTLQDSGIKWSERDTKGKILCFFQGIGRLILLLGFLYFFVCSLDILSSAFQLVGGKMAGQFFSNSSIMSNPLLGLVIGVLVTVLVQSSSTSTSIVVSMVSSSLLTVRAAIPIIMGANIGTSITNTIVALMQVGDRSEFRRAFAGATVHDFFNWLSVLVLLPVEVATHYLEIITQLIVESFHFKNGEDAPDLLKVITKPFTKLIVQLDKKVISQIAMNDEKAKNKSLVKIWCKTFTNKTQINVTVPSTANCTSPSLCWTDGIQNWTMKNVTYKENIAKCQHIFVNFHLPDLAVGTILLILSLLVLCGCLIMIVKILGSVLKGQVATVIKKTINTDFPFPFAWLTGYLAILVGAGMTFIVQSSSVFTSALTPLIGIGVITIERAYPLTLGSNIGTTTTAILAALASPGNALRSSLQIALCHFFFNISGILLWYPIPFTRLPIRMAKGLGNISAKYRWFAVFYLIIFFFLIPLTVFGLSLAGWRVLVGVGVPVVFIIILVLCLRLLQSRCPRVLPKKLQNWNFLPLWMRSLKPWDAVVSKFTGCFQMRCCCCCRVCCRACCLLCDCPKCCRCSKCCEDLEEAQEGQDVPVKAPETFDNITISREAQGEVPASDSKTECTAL
Protocol: HEK293 cells were obtained from the American Type Culture collection and propagated per their instructions. Expression clones for rat and human NaP2b (SLC34A2) were obtained from Open Biosystems (Catalog numbers MRN1768-9510282, and MHS1010-99823026, respectively). The sequence of the human protein was mutated to insert a threonine after residue 37, and to introduce a N39D mutation.
The rate of phosphate (Pi) uptake into HEK293 cells was measured using a modification of the method described by Mohrmann et al. (Mohrmann, I., Mohrmann, M., Biber, J., and Murer, H. (1986) Am. J. Phys. 250(3 Pt 1):G323-30.) Transfected HEK293 cells were treated with a pharmacological agent to minimize endogenous PiT-mediated phosphate transport activity, such that the only remaining sodium-dependent phosphate transport activity is that which was bestowed by introduction of the NaP2b genes.
Cells were seeded into 96-well plates at 25,000 cells/well and cultured overnight. Lipofectamine 2000 (Invitrogen) was used to introduce the NaP2b cDNA, and the cells were allowed to approach confluence during a second overnight incubation. […] Cells were then overlayed with either choline uptake buffer or sodium uptake buffer (14 mM Tris, 137 mM sodium chloride, 5.4 mM KCl, 2.8 mM CaCl2, 1.2 mM MgSO4, 100 uM KH2PO4, PiT-silencing agent, 1 mg/mL Bovine Serum Albumin, pH 7.4) containing 6-9 uCi/mL ^33P orthophosphoric acid (Perkin Elmer) and test compound. Each compound was tested at twelve concentrations ranging from 0.1 nM to 30 uM. Assays were run in duplicate.
After incubation for 3-30 minutes at room temperature, assay mixtures were removed, and the cells were washed twice with ice cold stop solution (137 mM sodium chloride, 14 mM Tris, pH 7.4). Cells were lysed by addition of 20 μL 0.1% Tween 80 followed by 100 μL scintillation fluid, and counted using a TopCount (Perkin Elmer).
pIC50 (the negative log of the IC50) values of the test compounds were calculated using GraphPad Prism.

[1] = Determination of compound Cmax and AUC after oral gavage (plasma LC-MS/MS); format: in vivo, Sprague-Dawley rats; conditions: Sprague-Dawley, rat, plasma, po
Protocol: (§1) Sprague-Dawley rats were orally gavaged with test article at a nominal dose of 2.5 or 10 mg/kg and blood was collected at 0.5, 1, 2 and 4 h. Blood samples were processed to plasma using K2EDTA as an anticoaglulant. Plasma samples were treated with acetonitrile containing an internal standard, precipitated proteins removed by centrifugation. Supernatants were analyzed by LC-MS/MS and compound concentrations were determined by interpolation from a standard curve prepared in plasma. All compounds were orally dosed at the dosage shown, and pharmacokinetic parameters determined.
as §1, with “interpolated” for “interpolation”
as §1, with “interpolated” for “interpolation”

[2] = Structure (I) examples, Table 15, actual oral dose 3-15 mg/kg, plasma 0.5-4 h
[3] = Structure (II) examples, Table 6, actual oral dose 7.6-11 mg/kg

Row | IC50 (rat NaP2b (SLC34A2)) | IC50 (human NaP2b (SLC34A2)) | AUC [1, 2] | Cmax [1, 2] | AUC [1, 3] | Cmax [1, 3] | SMILES
1 | 1 to 7.94 µM | 1 to 7.94 µM | – | – | – | – | O=C(O)CCSCc1cccc(C(=O)Nc2ccc(N3CCCCC3)cc2-c2cc(NCc3cccc(C(F)(F)F)c3)ncn2)c1 [Example 3.1, 3-((3-((4-(Piperidin-1-yl)-2-(6-((3-(trifluoromethyl)benzyl)amino)pyrimidin-4-yl)phenyl)carbamoyl)benzyl)thio)propanoic acid]
2 | 1 to 7.94 µM | < 1 µM | – | – | – | – | CN(Cc1cncn1C)C(=O)c1cccc(C(=O)Nc2ccc(N3CCCCC3)cc2-c2cc(C(=O)NCc3cccc(C(F)(F)F)c3)ccn2)c1 [Example 4.26]
3 | 1 to 7.94 µM | 1 to 7.94 µM | – | – | – | – | COCCOCCOCCOCCOCCOCCOCCOC(=O)N1CCCN(CCN(C)C(=O)c2cccc(C(=O)Nc3ccc(N4CCCCC4)cc3-c3cc(C(=O)N[C@H]4CCCc5ccccc54)ccn3)c2)CC1 [Example 214, (S)-2,5,8,11,14,17,20-heptaoxadocosan-22-yl 4-(2-(N-methyl-3-(4-(piperidin-1-yl)-2-(4-(1,2,3,4-tetrahydronaphthalen-1-ylcarbamoyl)pyridin-2-yl)phenylcarbamoyl)benzamido)ethyl)-1,4-diazepane-1-carboxylate]
4 | 10 to 31.6 µM | 1 to 7.94 µM | – | – | – | – | COCCOCCOCCOCCOCCOCCOCCOCC(=O)N1CCCN(CCN(C)C(=O)c2cccc(C(=O)Nc3ccc(N4CCCCC4)cc3-c3cc(C(=O)N[C@H]4CCCc5ccccc54)ccn3)c2)CC1 [Example 213, (S)—N1-(2-(4-2,5,8,11,14,17,20,23-octaoxapentacosane-1,4-diazepan-1-yl)ethyl)-N1-methyl-N3-(4-(piperidin-1-yl)-2-(4-(1,2,3,4-tetrahydronaphthalen-1-ylcarbamoyl)pyridin-2-yl)phenyl)isophthalamide]
5 | 10 to 31.6 µM | 10 to 31.6 µM | – | – | – | – | CCN(CC)c1ccc(NC(=O)c2cccc(C(=O)N(C)CCN3CCN(C(=O)N(C)CCOCCOCCOCCC(=O)N4CCN(CCOCCO)CC4)CC3)c2)c(-c2cc(C(=O)N[C@H]3CCCc4ccccc43)ccn2)c1 [Example 231, 3-N-[4-(diethylamino)-2-(4-{[(1S)-1,2,3,4-tetrahydronaphthalen-1-yl]carbamoyl}pyridin-2-yl)phenyl]-1-N-(2-{4-[(2-{2-[2-(3-{4-[2-(2-hydroxyethoxy)ethyl]piperazin-1-yl}-3-oxopropoxy)ethoxy]ethoxy}ethyl)(methyl)carbamoyl]piperazin-1-yl}ethyl)-1-N-methylbenzene-1,3-dicarboxamide]
6 | 1 to 7.94 µM | – | > 50 ng·h/mL | > 50 ng/mL | – | – | O=C(O)CCCNC(=O)Cc1cccc(SCc2cccc(C(=O)Nc3ccc(N4CCCCC4)cc3-c3cc(C(=O)NCc4cccc(C(F)(F)F)c4)ccn3)c2)c1 [Example 141]
7 | 1 to 7.94 µM | – | < 30 ng·h/mL | < 10 ng/mL | – | – | CN(CCOCCOCCOCCC(=O)O)C(=O)c1cccc(C(=O)Nc2ccc(N3CCCCC3)cc2-c2cc(C(=O)N[C@H]3CCCc4ccccc43)ccn2)c1 [Example 249, 3-[2-(2-{2-[N-methyl-1-(3-{[4-(piperidin-1-yl)-2-(4-{[(1S)-1,2,3,4-tetrahydronaphthalen-1-yl]carbamoyl}pyridin-2-yl)phenyl]carbamoyl}phenyl)formamido]ethoxy}ethoxy)ethoxy]propanoic acid]
8 | 1 to 7.94 µM | – | < 30 ng·h/mL | < 10 ng/mL | – | – | CN(C)C(=O)C1CCN(CCN(C)C(=O)c2cccc(C(=O)Nc3ccc(N4CCCCC4)cc3-c3cc(C(=O)N[C@H]4CCCc5ccccc54)ccn3)c2)CC1 [Example 218, (S)—N1-(2-(4-(dimethylcarbamoyl)piperidin-1-yl)ethyl)-N1-methyl-N3-(4-(piperidin-1-yl)-2-(4-(1,2,3,4-tetrahydronaphthalen-1-ylcarbamoyl)pyridin-2-yl)phenyl)isophthalamide]
9 | 1 to 7.94 µM | – | < 30 ng·h/mL | < 10 ng/mL | – | – | COCCN(C)C(=O)N1CCN(CCN(C)C(=O)c2cccc(C(=O)Nc3ccc(N4CCCCC4)cc3-c3cc(C(=O)NCc4cccc(C(F)(F)F)c4)ccn3)c2)CC1 [Example 211, N1-(2-(4-((2-methoxyethyl)(methyl)carbamoyl)piperazin-1-yl)ethyl)-N1-methyl-N3-(4-(piperidin-1-yl)-2-(4-(3-(trifluoromethyl)benzylcarbamoyl)pyridin-2-yl)phenyl)isophthalamide]
10 | – | – | – | – | 11 ng·h/mL | 10 ng/mL | CN(CCOCCOCCOCCC(=O)O)C(=O)c1cccc(C(=O)Nc2ccc(N3CCCCC3)cc2C(=O)Nc2ccn(-c3cccc(C(F)(F)F)c3)n2)c1 [Example 15]
11 | 1 to 7.94 µM | – | < 10 ng·h/mL | < 10 ng/mL | – | – | COCCOCCOCCOCCOCCOCCOCCOCCNC(=O)[C@@H]1CCCN1CCN(C)C(=O)c1cccc(C(=O)Nc2ccc(N3CCCCC3)cc2-c2cc(C(=O)N[C@H]3CCCc4ccccc43)ccn2)c1 [Example 195, N^1-(2-((S)-2-(2,5,8,11,14,17,20,23-octaoxapentacosan-25-ylcarbamoyl)pyrrolidin-1-yl)ethyl)-N-methyl-N^3-(4-(piperidin-1-v)-2-(4-(((S)-1,2,3,4-tetrahydronaphthalen-1-yl)carbamoyl)pyridin-2-yl)phenyl)isophthalamide]
12 | – | – | > 50 ng·h/mL | < 50 ng/mL | – | – | O=C(O)CCSCc1cccc(C(=O)Nc2ccc(N3CCCCC3)cc2-c2cc(C(=O)NCc3cccc(C(F)(F)F)c3)ccn2)c1 [Example 1.1, 3-(3-((2-(4-((3-(Trifluoromethyl)benzyl)carbamoyl)pyridin-2-yl)-4-(piperidin-1-yl)phenyl)carbamoyl)benzylthio)propanoic acid]
